Assay results published in ChEMBL document CHEMBL1140943, “Third-generation immucillins: syntheses and bioactivities of acyclic immucillin inhibitors of human purine nucleoside phosphorylase” (J Med Chem, 2009).

What follows are compounds tested against T1, Purine nucleoside phosphorylase (Homo sapiens, UniProt P00491).
T1 sequence (P00491 whole entry): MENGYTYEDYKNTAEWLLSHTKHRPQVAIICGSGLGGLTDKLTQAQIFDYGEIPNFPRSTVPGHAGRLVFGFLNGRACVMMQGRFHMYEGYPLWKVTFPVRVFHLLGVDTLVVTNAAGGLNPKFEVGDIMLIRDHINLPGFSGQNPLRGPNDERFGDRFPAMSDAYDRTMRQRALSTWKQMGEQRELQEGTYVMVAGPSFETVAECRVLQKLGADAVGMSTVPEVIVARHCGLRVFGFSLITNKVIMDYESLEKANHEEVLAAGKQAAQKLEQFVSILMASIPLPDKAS
Description: Inhibition of human PNP by xanthine-oxidase coupled assay

| Compound | Ki [pM] |
| --- | --- |
| Nc1nc2c(CNC(CO)CO)c[nH]c2c(=O)[nH]1 | 2.1 |
| Nc1nc2c(CN[C@H](CO)[C@H](O)CO)c[nH]c2c(=O)[nH]1 | 3.4 |
| O=c1[nH]cnc2c(CN3C[C@H](CO)[C@@H](O)C3)c[nH]c12 [ULODESINE] | 8.5 |
